Reference: patent publication US20030162762A1, “Novel cephalosporin compounds and process for preparing the same” (priority 2000, published 2003)
In brackets after ≈: the same amount, converted by molar mass. Where two headings read alike, the source gives them in different places.

How the values were obtained:
Assay in all cases: Minimum Inhibitory Concentration (MIC), agar dilution, standard strains
S. aureus K311 = type: cell-based, Staphylococcus aureus; settings: for MIC: Staphylococcus aureus, read-out: Minimum Inhibitory Concentration, S. aureus K311
Protocol: (§1) The effectiveness of the compound according to the present invention was determined by obtaining Minimum Inhibitory Concentration (MIC) of the compounds prepared by the above examples (Compounds I-1 to I-41) and vancomycin, which is the known compound having a potent activity against gram-positive strains, as the control drug against the standard strains. Specifically, Minimum Inhibitory Concentration was obtained by diluting the test compound according to a double dilution method, dispersing them in Mueller-Hinton agar medium, inoculating each of the test strain having 10^7 cfu (colony forming unit) per ml in an amount of 2 μl to the medium and then incubating them at 37° C. for 20 hours. From the result of Minimum Inhibitory Concentration test, it can be seen that the compound according to the present invention has a good activity against major pathogenic microorganisms, which cause hospital infection, including MRSA strains.

S. aureus 77 = type: cell-based, Staphylococcus aureus; settings: for MIC: read-out: Minimum Inhibitory Concentration, S. aureus 77
Protocol: as §1

E. faecalis EFS004 = type: cell-based; settings: for MIC: Enterococcus faecalis, read-out: Minimum Inhibitory Concentration, E. faecalis EFS004
Protocol: as §1

[1] = tested on: Staphylococcus aureus giorgio; type: cell-based; settings: for MIC: Staphylococcus aureus, read-out: Minimum Inhibitory Concentration, Staphylococcus aureus giorgio
Protocol: as §1

S. epidermidis R005 = type: cell-based; settings: for MIC: Staphylococcus epidermidis, read-out: Minimum Inhibitory Concentration, S. epidermidis R005
Protocol: as §1

S. aureus 241 = type: cell-based, Staphylococcus aureus; settings: Staphylococcus aureus, 241, 20 h, read-out: Minimum Inhibitory Concentration, S. aureus 241
Protocol: as §1

E. faecalis L239 = type: cell-based; settings: Enterococcus faecalis, L239, 20 h, read-out: Minimum Inhibitory Concentration, E. faecalis L239
Protocol: as §1

[2] = K311, Table 2, Mueller-Hinton agar, 37° C., 20 hours
[3] = Staphylococcus aureus, 77, Table 2, Mueller-Hinton agar, 37° C., 20 hours
[4] = EFS004, Table 2, Mueller-Hinton agar, 37° C., 20 hours
[5] = Table 2, Mueller-Hinton agar, 37° C., 20 hours
[6] = R005, Table 2, Mueller-Hinton agar, 37° C., 20 hours

SMILES	MIC (S. aureus K311; [2]) [µg/mL]	MIC (S. aureus 77; [3]) [µg/mL]	MIC (E. faecalis EFS004; [4]) [µg/mL]	MIC [1, 5] [µg/mL]	MIC (S. epidermidis R005; [6]) [µg/mL]	Minimum Inhibitory Concentration, S. aureus 77 (S. aureus 77; [5]) [µg/mL]	Minimum Inhibitory Concentration, Staphylococcus aureus giorgio [1, 5] [µg/mL]	Minimum Inhibitory Concentration, S. epidermidis R005 (S. epidermidis R005; [5]) [µg/mL]	Minimum Inhibitory Concentration, S. aureus K311 (S. aureus K311; [5]) [µg/mL]	Minimum Inhibitory Concentration, E. faecalis EFS004 (E. faecalis EFS004; [5]) [µg/mL]	further results
CN[C@H](CC(C)C)C(=O)N[C@H]1C(=O)N[C@@H](CC(N)=O)C(=O)N[C@H]2C(=O)N[C@H]3C(=O)N[C@H](C(=O)N[C@H](C(=O)O)c4cc(O)cc(O)c4-c4cc3ccc4O)[C@H](O)c3ccc(c(Cl)c3)Oc3cc2cc(c3O[C@@H]2O[C@H](CO)[C@@H](O)[C@H](O)[C@H]2O[C@H]2C[C@](C)(N)[C@H](O)[C@H](C)O2)Oc2ccc(cc2Cl)[C@H]1O [Vancomycin, vancomycin, reference compound]						1	1	1			MIC (S. aureus K311; K311, 20 h): 2 µg/mL (≈ 1.38 µM); MIC (S. aureus 77; Staphylococcus aureus, 77, 20 h): 1 µg/mL (≈ 0.69 µM); MIC (S. aureus 241): 2 µg/mL (≈ 1.38 µM); MIC (E. faecalis EFS004; EFS004, 20 h): 2 µg/mL (≈ 1.38 µM); MIC ([1]; 20 h): 1 µg/mL (≈ 0.69 µM); MIC (S. epidermidis R005; R005, 20 h): 1 µg/mL (≈ 0.69 µM); MIC (E. faecalis L239): 2 µg/mL (≈ 1.38 µM)
Nc1nc(SC/C=C/C2=C(C(=O)O)N3C(=O)[C@@H](NC(=O)CSc4cc(Cl)nc(Cl)c4)[C@H]3SC2)c2c([n+]1N)CCC2 [Compound I-17, 1,2-diamino-4-({(E)-3-[(6R,7R)-2-carboxy-7-({2-[(2,6-dichloro-4-pyridinyl)sulfanyl]acetyl}amino)-8-oxo-5-thia-1-azabicyclo[4.2.0]oct-2-en-3-yl]-2-propenyl}sulfanyl)-6,7-dihydro-5H-cyclopenta[d]pyrimidin-1-ium]						0.25	<0.008	0.25	0.5	0.5	
Cn1c(N)n[n+]2c(SC/C=C/C3=C(C(=O)O)N4C(=O)[C@@H](NC(=O)CSc5cc(Cl)nc(Cl)c5)[C@H]4SC3)nc(N)cc12 [Compound I-14, 2,7-diamino-5-({(E)-3-[(6R,7R)-2-carboxy-7-({2-[(2,6-dichloro-4-pyridinyl)sulfanyl]acetyl}amino)-8-oxo-5-thia-1-azabicyclo[4.2.0]oct-2-en-3-yl]-2-propenyl}sulfanyl)-1-methyl-1H-[1,2,4]triazolo[1,5-c]pyrimidin-4-ium]						0.13	<0.008	0.13	0.25	1	
CC[n+]1c(N)cc(N)nc1SC/C=C/C1=C(C(=O)O)N2C(=O)[C@@H](NC(=O)CSc3cc(Cl)nc(Cl)c3)[C@H]2SC1 [Compound I-16, 4,6-diamino-2-({(E)-3-[(6R,7R)-2-carboxy-7-({2-[(2,6-dichloro-4-pyridinyl)sulfanyl]acetyl}amino)-8-oxo-5-thia-1-azabicyclo[4.2.0]oct-2-en-3-yl]-2-propenyl}sulfanyl)-1-ethylpyrimidin-1-ium]						0.13	<0.008	0.13	0.5	0.5	
Nc1cc(N)[n+](C/C=C/C2=C(C(=O)O)N3C(=O)[C@@H](NC(=O)CSc4cc(Cl)nc(Cl)c4)[C@H]3SC2)cn1 [Compound I-18]						0.25	0.016	0.25	1	1	

More lines, main results first:

MIC (S. aureus K311; [2]) [µg/mL]	MIC (S. aureus 77; [3]) [µg/mL]	MIC (E. faecalis EFS004; [4]) [µg/mL]	MIC [1, 5] [µg/mL]	MIC (S. epidermidis R005; [6]) [µg/mL]	SMILES	Minimum Inhibitory Concentration, S. aureus 77 (S. aureus 77; [5]) [µg/mL]	Minimum Inhibitory Concentration, Staphylococcus aureus giorgio [1, 5] [µg/mL]	Minimum Inhibitory Concentration, S. epidermidis R005 (S. epidermidis R005; [5]) [µg/mL]	Minimum Inhibitory Concentration, S. aureus K311 (S. aureus K311; [5]) [µg/mL]	Minimum Inhibitory Concentration, E. faecalis EFS004 (E. faecalis EFS004; [5]) [µg/mL]	further results
1 (≈ 1.55 µM)	0.5 (≈ 0.776 µM)	0.5 (≈ 0.776 µM)	0.031 (≈ 0.0481 µM)	0.5 (≈ 0.776 µM)	CCSc1nc(C)cc(SC/C=C/C2=C(C(=O)O)N3C(=O)[C@@H](NC(=O)CSc4cc(Cl)nc(Cl)c4)[C@H]3SC2)n1 [Compound I-12, (6R,7R)-7-({2-[(2,6-dichloro-4-pyridinyl)sulfanyl]acetyl}amino)-3-((E)-3-{[2-(ethylsulfanyl)-6-methyl-4-pyrimidinyl]sulfanyl}-1-propenyl)-8-oxo-5-thia-1-azabicyclo[4.2.0]oct-2-ene-2-carboxylic acid]						
0.5 (≈ 0.819 µM)	0.25 (≈ 0.409 µM)	0.5 (≈ 0.819 µM)	< 0.008	0.25 (≈ 0.409 µM)	O=C(CSc1cc(Cl)nc(Cl)c1)N[C@@H]1C(=O)N2C(C(=O)O)=C(/C=C/CSc3ncnc4[nH]ncc34)CS[C@H]12 [Compound I-7, (6R,7R)-7-({2-[(2,6-dichloro-4-pyridinyl)sulfanyl]acetyl}amino)-8-oxo-3-[(E)-3-(1H-pyrazolo[3,4-d]pyrimidin-4-ylsulfanyl]-1-propenyl]-5-thia-1-azabicyclo[4.2.0]oct-2-ene-2-carboxylic acid]						
0.5 (≈ 0.833 µM)	0.25 (≈ 0.416 µM)	1 (≈ 1.67 µM)	0.031 (≈ 0.0516 µM)	0.5 (≈ 0.833 µM)	Nc1cc(N)nc(SC/C=C/C2=C(C(=O)O)N3C(=O)[C@@H](NC(=O)CSc4cc(Cl)nc(Cl)c4)[C@H]3SC2)n1 [Compound I-8, (6R,7R)-3-{(E)-3-[(4,6-diamino-2-pyrimidinyl)sulfanyl]-1-propenyl}-7-({2-[(2,6-dichloro-4-pyridinyl)sulfanyl]acetyl}amino)-8-oxo-5-thia-1-azabicyclo[4.2.0]oct-2-ene-2-carboxylic acid]						
0.5 (≈ 0.831 µM)	0.25 (≈ 0.416 µM)	1 (≈ 1.66 µM)	0.016 (≈ 0.0266 µM)	0.25 (≈ 0.416 µM)	Nc1nc(O)cc(SC/C=C/C2=C(C(=O)O)N3C(=O)[C@@H](NC(=O)CSc4cc(Cl)nc(Cl)c4)[C@H]3SC2)n1 [Compound I-10, (6R,7R)-3-{(E)-3-[(2-amino-6-hydroxy-4-pyrimidinyl)sulfanyl]-1-propenyl}-7-({2-[(2,6-dichloro-4-pyridinyl)sulfanyl]acetyl}amino)-8-oxo-5-thia-1-azabicyclo [4.2.0]oct-2-ene-2-carboxylic acid]						
1 (≈ 1.6 µM)	0.25 (≈ 0.4 µM)	1 (≈ 1.6 µM)	0.031 (≈ 0.0496 µM)	0.5 (≈ 0.799 µM)	Nc1nc(SC/C=C/C2=C(C(=O)O)N3C(=O)[C@@H](NC(=O)CSc4cc(Cl)nc(Cl)c4)[C@H]3SC2)nc2[nH]ncc12 [Compound I-9, (6R,7R)-3-{(E)-3-[(4-amino-1H-pyrazolo[3,4-d]pyrimidin-6-yl)sulfanyl]-1-propenyl}-7-({2-[(2,6-dichloro-4-pyridinyl)sulfanyl]acetyl}amino)-8-oxo-5-thia-1-azabicyclo[4.2.0]oct-2-ene-2-carboxylic acid]						
